Laboratory results taken from US9511086B2, “Method for improving immune system function by administering agents that inhibit DNA-dependent protein kinase-directed apoptosis” (The Board of Trustees of the Leland Stanford Junior …, priority 2010, dated 2016).

What was measured:
[1] = system: CD4+CD45RO− T cells from control donors; test: T-cell apoptosis by flow cytometry staining for PI, control T cells; format: cell-based, human
Method: FIG. 5. Inhibition of DNA-PKcs activity protects RA T cells from apoptosis. CD4+CD45RO− T cells were isolated from 6 control donors and 7 RA patients. Cells were maintained in culture without stimulation for 48 h and then were treated with the DNA-PKcs inhibitor IC86621 (50 nM, 100 nM) or vehicle for 24 h. Cells were harvested and (A) T-cell apoptosis was measured by flow cytometry staining for PI. Representative cytometric data from one patient and one control are shown. (B) Frequencies of PI-positive T-cells in the absence and presence of the DNA-PKcs inhibitor from 6 controls and 7 RA patients are presented as mean±SEM.
Peripheral blood mononuclear cells (PBMC) were separated from whole blood with Lymphocyte Separation Medium (Mediatech Inc., Herndon, Va.). CD45RO^− cells were negatively selected with microbeads (Miltenyi Biotec Inc., Auburn, Calif.), and the naïve CD4^+CD45RO^− population was subsequently selected with CD4 microbeads (autoMACS, Miltenyi Biotec Inc.). […]
To quantify T-cell apoptosis, CD4^+CD45RO^− cells were washed and suspended in 500 μl FACS buffer supplemented with EasyComp Blank Particles (Spherotech, Lake Forest, Ill.). Uptake of PI (Sigma-Aldrich) was determined by flow cytometry. Apoptotic cells were detected with PE-Annexin V (BD Biosciences, San Jose, Calif.) and 7-AAD (BD Biosciences).

Bim = Bim protein level by flow cytometry in RA T cells; format: cell-based, human; details: treated vs untreated
Method: (§1) FIG. 8. The DNA-PKcs-JNK pathway upregulates the apoptogenic molecules Bim and Bmf in RA CD4+ T cells. CD4+CD45RO− T cells were isolated from the peripheral blood of 6 controls and 6 RA patients. Cells were maintained in culture without mitogenic stimulation for 72 h. (A) Puma, Noxa, Bim and Bmf transcript levels in freshly isolated cells were quantified by qPCR. Data are presented as mean±SEM. (B) Flow cytometry analysis of Bim levels in control and RA naïve T cells after 72 h of culture. Expression of Bim protein in n=5 RA and n=5 controls samples is given as MFI of Alexa Fluor 488 Bim. (C) Flow cytometry analysis of Bmf levels in control and RA naïve T cells. Expression of Bmf protein in n=6 RA and n=4 controls samples is given as MFI of PE Bmf. (D) Bcl-2 protein levels were analyzed by flow cytometry. Expression of Bcl-2 protein in n=6 RA and n=6 control samples is given as MFI of FITC Bcl-2. (E) Bim protein level in the absence and presence of the DNA-PKcs inhibitor were analyzed by flow cytometry in samples from 4 RA patients. […]
(§2) For intracellular staining, cells were fixed directly with 1.5% formaldehyde for 10 min at room temperature and resuspended in 90% methanol. […] Proteins or 8-oxoguanine expression were detected by an LSRII flow cytometer (BD Biosciences). Data were analyzed by FlowJo software (Tree Star Inc., Ashland, Oreg.). […]

Bmf = Bmf protein level by flow cytometry in RA T cells; format: cell-based, human; details: treated vs untreated
Method: as §1, §2

aurora-related kinase 2 = aurora-related kinase 2 (Homo sapiens, UniProt Q96GD4); details: concentrations of up to 100 μM; cited from earlier work
aurora-related kinase 2, sequence (Q96GD4 whole entry): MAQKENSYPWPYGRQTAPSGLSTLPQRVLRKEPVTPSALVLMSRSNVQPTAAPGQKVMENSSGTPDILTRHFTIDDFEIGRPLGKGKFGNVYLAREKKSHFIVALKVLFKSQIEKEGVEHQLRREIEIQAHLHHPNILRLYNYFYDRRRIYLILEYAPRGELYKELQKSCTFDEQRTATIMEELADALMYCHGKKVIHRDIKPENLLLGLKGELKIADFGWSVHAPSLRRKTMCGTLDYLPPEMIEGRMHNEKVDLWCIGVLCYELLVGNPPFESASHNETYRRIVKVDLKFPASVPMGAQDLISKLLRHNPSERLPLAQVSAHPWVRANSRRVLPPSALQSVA

In the case of `CC(=O)c1ccc(N2CCOCC2)cc1O` [IC86621, 1-(2-hydroxy-4-morpholin-4-ylphenyl)ethanone], the “apoptotic control T cells” value ([1]; after 72 h of ex vivo culture, independent from treatment with the inhibitor) was 12-14%, the “survival in control T cells” value ([1]; control T cells, inhibitor 50 nM, 100 nM for 24 h) was “essentially did not affect survival” and the “intracellular Bim levels” value (Bim) was “reduced”. For the same molecule, the “intracellular Bmf levels” value (Bmf) was “reduced” and the “activity against aurora-related kinase 2” value (aurora-related kinase 2) was “neither activity”.
